Data as given in US10800816B2 (Baxalta GmbH, priority 2012, dated 2020).
Bridges are numbered along the chain shown (N, C = ends). [ ]: non-standard residue; d: D form. Aib = CC(C)(N)C(=O)O

Experiments:
[1] = tested on: cynomolgus TFPI 1-160; experiment: FXa inhibition assay with cynomolgus monkey TFPI 1-160; type: biochemical
[2] = molecular target: T1, HUVEC TFPI (Homo sapiens, UniProt P10646); experiment: Cell-based extrinsic tenase assay (HUVEC); conditions: relative to 100 nM polyclonal anti-human TFPI antibody = 100%
T1 construct: endogenous in cells; host or cells: HUVEC stimulated with TNFα
T1 sequence (P10646 29-304): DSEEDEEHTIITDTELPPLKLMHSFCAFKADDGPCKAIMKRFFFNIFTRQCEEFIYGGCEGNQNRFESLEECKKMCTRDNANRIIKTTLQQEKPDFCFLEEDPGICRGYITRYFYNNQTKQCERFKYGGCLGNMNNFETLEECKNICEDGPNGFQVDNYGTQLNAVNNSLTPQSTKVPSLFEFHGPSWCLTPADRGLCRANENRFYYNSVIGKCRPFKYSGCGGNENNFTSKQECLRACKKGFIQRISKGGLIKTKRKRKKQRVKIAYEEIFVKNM

[3] = tested on: FVIII-inhibited whole blood; experiment: Rotation thromboelastography (ROTEM) in whole blood; design: species or system human; conditions: concentrations above 100 nM; 2 nM and 10 nM full length TFPI added
[4] = molecular target: T2, TFPI (Homo sapiens, UniProt P10646); experiment: koff assay; type: binding; conditions: 24 hour incubation
T2 sequence (P10646 29-304): T1 sequence (P10646 29-304)

[5] = molecular target: T3, platelet TFPI (Homo sapiens, UniProt P10646); experiment: TF-FVIIa-catalysed FX activation inhibited by platelet TFPI; type: biochemical; conditions: 50 nM peptide
T3 construct: from tissue; donor PPP and PRP
T3 sequence (P10646 29-304): T1 sequence (P10646 29-304)

[6] = molecular target: T4, plasma- and platelet TFPI (Homo sapiens, UniProt P10646); experiment: Thrombin generation in platelet-poor and platelet-rich plasma; type: biochemical
T4 construct: from tissue; donor PPP and PRP
T4 sequence (P10646 29-304): T1 sequence (P10646 29-304)

[7] = molecular target: T5, fl-TFPI / LRP (Homo sapiens, UniProt P10646); experiment: BIAcore: fl-TFPI binding to LRP in presence of peptide; conditions: 1 μM peptide, 10 nM fl-TFPI
T5 sequence (P10646 29-304): T1 sequence (P10646 29-304)
T5 sequence (Q07954 852-1182 partner limits assumed): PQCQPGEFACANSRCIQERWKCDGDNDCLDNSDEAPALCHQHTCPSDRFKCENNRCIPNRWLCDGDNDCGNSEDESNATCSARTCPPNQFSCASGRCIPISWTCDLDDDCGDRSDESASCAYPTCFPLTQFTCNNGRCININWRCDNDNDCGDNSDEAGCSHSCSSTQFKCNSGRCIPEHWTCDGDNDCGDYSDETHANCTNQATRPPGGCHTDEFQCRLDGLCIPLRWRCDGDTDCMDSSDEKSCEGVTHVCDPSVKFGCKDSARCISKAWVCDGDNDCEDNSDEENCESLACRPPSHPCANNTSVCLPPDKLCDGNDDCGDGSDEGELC

[8] = molecular target: T6, fl-TFPI / ASGPR (Homo sapiens, UniProt P10646); experiment: BIAcore: fl-TFPI binding to ASGPR in presence of peptide; conditions: 1 μM peptide
T6 sequence (P10646 29-304): T1 sequence (P10646 29-304)

[9] = tested on: neutrophil elastase; experiment: Proteolytic degradation of fl-TFPI by neutrophil elastase; type: biochemical, human; conditions: 1 μM peptide, 5 nM fl-TFPI, 5 nM elastase, up to 60 minutes
[10] = molecular target: T2, TFPI; experiment: FXa inhibition by TFPI in presence of Ca2+, phospholipid and protein S; type: biochemical; conditions: 50 nM peptide; PL+Ca2++protein S
Procedure: The effects of TFPI binding peptides on the anticoagulant activity of TFPI was tested in model systems (inhibition of FXa and TF-FVIIa-catalysed FX activation by TFPI) and in plasma (NP, PPP, PRP or TFPI-depleted plasma reconstituted with recombinant- or platelet-TFPI or platelets). […] […])/kobs in which At is absorbance at 405 nm at time t; A0 is initial absorbance at 405 nm; vs is final steady-state velocity; v0 is initial velocity; kobs is apparent rate constant for the transition from v0 to vs (FXa-TFPI to FXa-TFPI*). The values v0 and vs relative to rates of chromogenic substrate conversion by FXa in the absence of TFPI, represent the extent of loose and tight FXa-TFPI complex formation.

[11] = in vitro; conditions: human, plasma
[12] = tested on: TFPI; experiment: FXa inhibition assay (human TFPI); conditions: all human TFPI concentrations tested (up to 10 nM)
[13] = tested on: TFPI; experiment: Extrinsic tenase inhibition assay; conditions: Table 19; 0.0625 nM TFPI
[14] = molecular target: T2, TFPI; experiment: Plasma-based thrombin generation assay (calibrated automated thrombography), human plasma; conditions: 50-100 nM peptide; 10 nM flTFPI, FVIII-inhibited plasma

Ac-FQSK[dP]NVHVDGYFERL[Aib]AKLSSSSSSSSSSSYYKWHCAMRDMKGTMTCVWVKF-NH2 (disulfide 37-48 (inferred)) [JBT2547]
reduction of EC50 compared to JBT1857 [1]: approximately 200 fold
reduction of EC50 compared to the combination of JBT1837 and JBT1857 [1]: ~10 fold
Cynomolgus Monkey TFPI 1-160 Maximal inhibition (%) ([1]; Table 20): 100%
concentration achieving full inhibition of TFPI [2]: about 10 nM
restoration of coagulation with added full length TFPI [3]: fully restored normal coagulation of FVIII-inhibited whole blood
blocking of tracer JBT2271 binding after incubation [4]: continued to block binding of the tracer to TFPI
blocking of platelet TFPI inhibition of TF-FVIIa-catalysed FX activation [5]: completely blocked the anticoagulant activity of TFPI
enhancement of thrombin generation ([6]; PPP): 3-4 fold
concentration sufficient to fully inhibit TFPI ([6]; PPP and PRP): 5 to 10 nM
enhancement of thrombin generation ([6]; PRP with inhibitory FVIII antibody): 3 fold
fl-TFPI interaction with LRP in presence of peptide [7]: higher response than that observed for TFPI complexed with single peptides
fl-TFPI interaction with ASGPR in presence of peptide [8]: interacted with ASGPR
effect on proteolysis of fl-TFPI by neutrophil elastase [9]: proteolysis of fl-TFPI was blocked during the monitored time
blocking of TFPI [10]: almost completely blocked TFPI
remaining at 24 h [11]: 54%
inhibition of TFPI activity [12]: 100%
Extrinsic Tenase Assay Maximal inhibition (%) [13]: 99%
compensation of added flTFPI [14]: fully compensated the anticoagulant effect of 10 nM flTFPI
